Reference: patent US6562808B1, “5,11-dihydrodibenzo[b,e][1,4]oxazepine derivatives and pharmaceutical composition containing the same” (Ajinomoto Co., Inc., priority 1997, dated 2003)

Key:
[1] = target: calcium channel (blood vessel, thoracic aortae) (Rattus norvegicus, UniProt P22002); assay: In vitro calcium channel-antagonistic effect (blood vessel): inhibition of high potassium contraction of thoracic aorta spiral samples; format: cell-based, rat (male Crj:CD); conditions: 30 minute pretreatment; for inhibition at 0.1 µM: high potassium (45.0 mM KCl) contraction, 10^−7 M test compound, read-out: Inhibition rate (%) (conc.: 10^−7M)
Method: In Vitro Calcium Channel-antagonistic Effect (Blood Vessel):
The thoracic aortae were taken out of male Crj:CD rats (8-12 weeks old) and spiral samples were prepared from them. The blood vessel samples were suspended in Tyrode's solution in which a mixed gas (95% of oxygen and 5% of carbon dioxide) was introduced at 37° C. As for the change in tension of each blood vessel, the isometry was recorded on an ink writing recorder through a transducer. The high potassium contraction was caused by changing the nutritive solution from the Tyrode's solution to a potassium-Tyrode's solution (94.6 mM of NaCl, 45.0 mM of KCl, 1.8 mM of CaCl2, 1.04 mM of MgCl2, 0.4 mM of NaH2PO4, 11.9 mM of NaHCO3, and 5.55 mM of glucose). The high potassium contraction-inhibiting effect of the test compound was determined by 30 minute pretreatment. Compound A described in European Patent No. 0404359A1 was used as a comparative substance. The results of the determination of the calcium channel antagonistic activity were given in terms of the rate of inhibition of the high calcium contraction with 10^−7 M of the test compound. In Table 1, “−” means not determined.

[2] = target: calcium channel (ileum) (Rattus norvegicus, UniProt P22002); assay: In vitro calcium channel-antagonistic effect (ileum): inhibition of high potassium contraction of ileum samples; format: cell-based, rat (male Crj:CD); conditions: 30 minute pretreatment; for inhibition at 0.1 µM: high potassium (45.0 mM KCl) contraction, 10^−7 M test compound, read-out: Inhibition rate (%) (conc.: 10^−7M)
Method: In Vitro Calcium Channel-antagonistic Effect (Ileum):
The ileum was taken out of male Crj:CD rats (8-12 weeks old) at a position of 3 cm distant from the ileocecal region. The ileum samples were suspended in Tyrode's solution in which a mixed gas (95% of oxygen and 5% of carbon dioxide) was introduced at 37° C. As for the change in tension of the ileum, the isometry was recorded on a ink writing recorder through a transducer. The high potassium contraction was caused by changing the nutritive solution from the Tyrode's solution to a potassium-Tyrode's solution (94.6 mM of NaCl, 45.0 mM of KCl, 1.8 mM of CaCl2, 1.04 mM of MgCl2, 0.4 mM of NaH2PO4, 11.9 mM of NaHCO3, and 5.55 mM of glucose). The high potassium contraction-inhibiting effect of the test compound was determined by 30 minute pretreatment. Compound A described in European Patent No. 0404359A1 was used as a comparative substance. The results of the determination of the calcium channel antagonistic activity were given in terms of the rate of inhibition of the high calcium contraction with 10^−7 M of the test compound. In Table 2, “−” means not determined.

[3] = Determination of solubility in neutral buffer solution; format: physicochemical; conditions: aqueous buffer, thermodynamic from solid; 0.15 M phosphate buffer pH 7.2, room temperature, left overnight, supernatant by HPLC
Method: Determination of Solubility:
A test compound was suspended in 0.15 M phosphate buffer solution having pH of 7.2 at room temperature. The obtained suspension was vigorously shaken and then left to stand overnight. The insoluble compound was removed by centrifugation, and the concentration of the compound in the supernatant was determined by the high-performance liquid chromatography.

Sequence of calcium channel (blood vessel, thoracic aortae) (P22002 whole entry): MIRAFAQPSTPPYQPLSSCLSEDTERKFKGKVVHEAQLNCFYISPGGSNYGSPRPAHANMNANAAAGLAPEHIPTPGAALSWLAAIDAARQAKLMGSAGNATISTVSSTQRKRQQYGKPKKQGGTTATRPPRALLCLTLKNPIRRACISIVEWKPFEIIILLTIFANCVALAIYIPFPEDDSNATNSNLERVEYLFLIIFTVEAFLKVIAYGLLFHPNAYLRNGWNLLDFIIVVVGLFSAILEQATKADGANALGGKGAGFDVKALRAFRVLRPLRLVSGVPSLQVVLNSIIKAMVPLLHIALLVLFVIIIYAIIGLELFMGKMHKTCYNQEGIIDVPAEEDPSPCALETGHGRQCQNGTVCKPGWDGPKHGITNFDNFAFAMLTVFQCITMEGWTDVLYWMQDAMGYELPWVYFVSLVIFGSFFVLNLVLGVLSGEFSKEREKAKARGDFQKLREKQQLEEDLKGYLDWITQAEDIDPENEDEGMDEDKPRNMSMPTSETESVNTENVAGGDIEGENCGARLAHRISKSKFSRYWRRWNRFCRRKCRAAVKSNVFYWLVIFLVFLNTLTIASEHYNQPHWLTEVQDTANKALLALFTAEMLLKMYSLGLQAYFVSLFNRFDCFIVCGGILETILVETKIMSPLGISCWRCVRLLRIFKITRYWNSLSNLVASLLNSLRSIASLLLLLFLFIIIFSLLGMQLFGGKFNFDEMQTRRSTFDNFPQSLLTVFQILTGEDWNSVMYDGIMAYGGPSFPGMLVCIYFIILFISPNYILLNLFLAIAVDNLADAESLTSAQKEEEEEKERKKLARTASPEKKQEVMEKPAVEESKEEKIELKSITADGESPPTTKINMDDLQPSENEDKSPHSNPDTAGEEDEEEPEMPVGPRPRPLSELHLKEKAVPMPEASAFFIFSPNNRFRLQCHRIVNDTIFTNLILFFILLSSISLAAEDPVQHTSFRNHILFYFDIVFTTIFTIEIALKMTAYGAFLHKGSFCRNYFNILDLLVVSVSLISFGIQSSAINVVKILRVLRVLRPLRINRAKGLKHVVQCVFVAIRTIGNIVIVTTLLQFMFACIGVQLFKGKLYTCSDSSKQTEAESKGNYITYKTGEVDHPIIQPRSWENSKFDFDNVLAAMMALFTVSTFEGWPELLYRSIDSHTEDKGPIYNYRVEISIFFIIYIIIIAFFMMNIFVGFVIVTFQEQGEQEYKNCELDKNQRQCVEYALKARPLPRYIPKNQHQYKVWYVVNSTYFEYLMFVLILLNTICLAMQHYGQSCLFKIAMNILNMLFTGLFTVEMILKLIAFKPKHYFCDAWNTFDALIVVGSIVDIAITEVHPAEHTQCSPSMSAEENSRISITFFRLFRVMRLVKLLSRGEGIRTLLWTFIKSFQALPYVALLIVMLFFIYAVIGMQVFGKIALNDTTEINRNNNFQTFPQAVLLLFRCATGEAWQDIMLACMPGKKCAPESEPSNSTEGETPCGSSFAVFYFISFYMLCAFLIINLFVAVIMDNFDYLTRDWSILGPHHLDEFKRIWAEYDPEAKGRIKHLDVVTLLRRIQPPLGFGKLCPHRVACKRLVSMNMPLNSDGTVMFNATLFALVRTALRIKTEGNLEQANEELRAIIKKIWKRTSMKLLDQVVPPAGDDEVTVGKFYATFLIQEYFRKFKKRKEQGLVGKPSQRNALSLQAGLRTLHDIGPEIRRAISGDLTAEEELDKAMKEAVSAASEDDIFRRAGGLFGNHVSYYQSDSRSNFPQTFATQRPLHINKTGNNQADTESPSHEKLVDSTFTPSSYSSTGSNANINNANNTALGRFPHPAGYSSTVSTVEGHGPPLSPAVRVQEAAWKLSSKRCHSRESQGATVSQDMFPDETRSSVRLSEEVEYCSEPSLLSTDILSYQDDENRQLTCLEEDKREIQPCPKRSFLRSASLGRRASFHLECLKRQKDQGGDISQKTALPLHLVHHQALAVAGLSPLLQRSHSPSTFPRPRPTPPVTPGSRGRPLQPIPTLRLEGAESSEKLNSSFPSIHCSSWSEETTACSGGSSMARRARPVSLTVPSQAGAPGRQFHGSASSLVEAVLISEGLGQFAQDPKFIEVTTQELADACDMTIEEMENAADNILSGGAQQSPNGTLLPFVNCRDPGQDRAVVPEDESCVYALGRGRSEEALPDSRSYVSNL
Sequence of calcium channel (ileum) (P22002 whole entry): as above

SMILES | melting point [°C] | inhibition at 0.1 µM [1] [%] | inhibition at 0.1 µM [2] [%] | solubility [3] [µg/mL] | IC50 ([1]; high potassium contraction, read-out: IC50 (nM), concentration for 50% contraction inhibition) [nM] | IC50 ([2]; high potassium contraction, read-out: IC50(nM), concentration for 50% contraction inhibition) [nM]
CCN(CC)c1ccc(CCN2CCC[C@@H]2CN2c3ccccc3COc3ccccc32)cc1.Cl.Cl [Example 6, (R)-5,11-Dihydro-5-[1-[2-(4-diethylaminophenyl)ethyl]-2-pyrrolidinylmethyl]dibenzo[b,e][1,4]oxazepine Dihydrochloride] | 143 to 146 | 24 | 51 | 638 |  | 
CN(C)c1ccc(CCN2CCC[C@@H]2CN2c3ccccc3COc3ccccc32)cc1.Cl.Cl [Example 2, (R)-5,11-Dihydro-5-[1-[2-(4-dimethylaminophenyl)ethyl]-2-pyrrolidinylmethyl]dibenzo[b,e][1,4]oxazepine Dihydrochloride] | 164 to 169 | 12 | 62 | 36 |  | 
COc1ccc(CCCN2CCC[C@@H]2CN2c3ccccc3COc3ccccc32)cc1.Cl [Example 24, (R)-5,11-Dihydro-5-[1-[3-(4-methoxyphenyl)propane-1-yl]-2-pyrrolidinylmethyl]dibenzo[b,e][1,4]oxazepine Hydrochloride] | 172 to 174 | 31 | 67 | 49 |  | 
CNc1cccc(CCN2CCC[C@@H]2CN2c3ccccc3COc3ccccc32)c1.Cl.Cl [Example 14, (R)-5,11-Dihydro-5-[1-[2-(3-methylaminophenyl)ethyl]-2-pyrrolidinylmethyl]dibenzo[b,e][1,4]oxazepine Dihydrochloride] | 179 to 181 | 41 | 76 | 56 |  | 
COc1ccc(C=CCN2CCC[C@@H]2CN2c3ccccc3COc3ccccc32)cc1.Cl | 120 to 122 |  |  |  |  | 
CN(C)c1cccc(CCN2CCC[C@@H]2CN2c3ccccc3COc3ccccc32)c1.Cl.Cl [Example 19, (R)-5,11-Dihydro-5-[1-[2-(3-dimethylaminophenyl)ethyl]2-pyrrolidinylmethyl)dibenzo[b,e][1,4]oxazepine Dihydrochloride] | 170 to 172 |  |  |  |  | 
CN(C)c1cccc(CCCN2CCC[C@@H]2CN2c3ccccc3COc3ccccc32)c1.Cl.Cl [Example 38, (R)-5,11-Dihydro-5-[1-[3-(3-dimethylaminophenyl)propane-1-yl]-2-pyrrolidinylmethyl]dibenzo[b,e][1,4]oxazepine Dihydrochloride] | 120 to 123 | 25 | 52 | 41 |  | 
COc1ccc(CCN2CCCC2CN2c3ccccc3CSc3ccccc32)cc1.O=C(O)/C=C\C(=O)O (stereo not drawn) [Compound A, reference compound] |  |  |  | 13 | 530 | 120
CNc1ccc(CCN2CCC[C@@H]2CN2c3ccccc3COc3ccccc32)cc1.Cl.Cl [Example 8, (R)-5,11-Dihydro-5-[1-[2-(4-methylaminophenyl)ethyl]-2-pyrrolidinylmethyl]dibenzo[b,e][1,4]oxazepine Dihydrochloride] | 134 to 137 |  |  | 116 |  | 
CN(C)c1cccc(CCN2CCC[C@@H]2CN2c3ccccc3COc3ccccc32)c1.Cl.Cl [Example 10, (R)-5,11-Dihydro-5-[1-[2-(3-dimethylaminophenyl)ethyl]-2-pyrrolidinylmethyl]dibenzo[b,e][1,4]oxazepine Dihydrochloride] | 125 to 128 | 51 | 87 | 30 |  | 

Further lines, with some results ahead:

melting point [°C] | SMILES | inhibition at 0.1 µM [1] [%] | inhibition at 0.1 µM [2] [%] | solubility [3] [µg/mL] | IC50 ([1]; high potassium contraction, read-out: IC50 (nM), concentration for 50% contraction inhibition) [nM] | IC50 ([2]; high potassium contraction, read-out: IC50(nM), concentration for 50% contraction inhibition) [nM]
179 to 182 | Cl.O[C@H](CCN1CCC[C@@H]1CN1c2ccccc2COc2ccccc21)c1ccccc1 |  |  |  |  | 
149 to 152 | Cl.Cl.Nc1cccc(CCN2CCC[C@@H]2CN2c3ccccc3COc3ccccc32)c1 [Example 13, (R)-5,11-Dihydro-5-[1-[2-(3-aminophenyl)ethyl]-2-pyrrolidinylmethyl]dibenzo[b,e][1,4]oxazepine Dihydrochloride] |  |  | 418 |  | 
176 to 180 | Cl.Cl.Nc1ccc(CCN2CCC[C@@H]2CN2c3ccccc3COc3ccccc32)cc1 |  |  |  |  | 
186 to 191 | COc1ccc(OCCN2CCC[C@@H]2CN2c3ccccc3COc3ccccc32)cc1.Cl |  |  |  |  | 
141 to 144 | COc1ccc(CCN2CCC[C@@H]2CN2c3ccccc3COc3ccccc32)cc1N(C)C.Cl.Cl |  |  |  |  | 
149 to 150 | Cl.O[C@@H](CCN1CCC[C@@H]1CN1c2ccccc2COc2ccccc21)c1ccccc1 |  |  |  |  | 
168 to 172 | Cl.Cl.Nc1ccccc1CCN1CCC[C@@H]1CN1c2ccccc2COc2ccccc21 |  |  |  |  | 
